From patent publication US20240226175A1, “THERAPEUTIC AGENT USING GENOME-EDITED PLURIPOTENT STEM CELL” (KEIO UNIVERSITY, priority 2020, published 2024)

How the values were obtained:
Format in all cases: cell-based, human
glioma cell line U87 = experiment: Antitumor effect in co-culture with 5-FC (CCK-8), U87; details: without TSC1/TSC2
Protocol: (§1) Glioma cell line U87 (1×10^4 cells) or glioma stem cell line hG008 (1×10^4 cells) and TSC1 or TSC2 (5×10^3 cells) were co-cultured for 1 day using a low adhesive 96-well culture plate (Prime Surface 96V, manufactured by Sumitomo Bakelite Co., Ltd.), then 5-FC (2 μg/ml) was added, and cell deaths were assessed using a cell proliferation/cytotoxicity assay kit Cell Counting Kit-8 (CCK-8) 5 days later.

[1] = test system: glioma stem cell line hG008; experiment: Antitumor effect in co-culture with 5-FC (CCK-8), hG008; details: without TSC1/TSC2
Protocol: as §1

(yCD-NSCs) = experiment: Response of yCD-NSCs to 5-FU; details: ACTB (yCD-NSCs)

Row | Structure (SMILES) | tumor cell death with 5-FC alone (glioma cell line U87) | tumor cell death with 5-FC alone [1] | response to 5-FU ((yCD-NSCs))
1 | Nc1nc(=O)[nH]cc1F [5-FC, 5-fluorocytosine] | no particular tumor cell death was observed | no particular tumor cell death was observed | –
2 | O=c1[nH]cc(F)c(=O)[nH]1 [5-FU, 5-fluorouracil] | – | – | not favorable
